From patent US20090186915A1, “Compositions and methods for treatment of glioblastoma, gliosarcoma, NSCLC, and head and neck cancer” (Unibioscreen S. A., priority 2006, published 2009)
pIC50: −log10 of the molar value. Where two headings read alike, the source gives them in different places.

Experiments:
U-373MG = test: MTT overall cell growth, U-373MG cells; format: cell-based; conditions: Homo sapiens
Procedure: Tests were performed in order to rapidly, i.e. within 5 days, measure the effect of the compound of example 2 on the overall cell growth. The test measures the number of metabolically active living cells that are able to transform the yellow product 3-(4,5-dimethylthiazol-2-yl)-2,5-diphenyl tetrazolium bromide (herein referred as MTT) into the blue product formazan dye by mitochondrial reduction. The amount of formazan obtained at the end of the experiment, measured by means of a spectrophotometer, is directly proportional to the number of living cells. Optical density determination thus enables a quantitative measurement of the effect of the investigated compounds as compared to the control condition (untreated cells) and/or to other reference compounds.
Six human cancer cell lines described in table 1 were used in the following MTT tests. These cell lines cover six histological cancer types, being prostate, glioma, pancreas, colon, lung and breast cancers. Cells were allowed to grow in 96 well micro-wells with a flat bottom with an amount of 100 μl of cell suspension per well with 1,000 to 4,000 cells/well depending on the cell type used. Each cell line was seeded in a well known MEM 10% serum culture medium. […]
After 72 hours of incubation at 37° C. with (experimental conditions) or without (control condition) the compound to be tested, the medium was replaced by 100 μl MTT dissolved in RPMI (1640 without phenol red) at a concentration of 1 mg/ml. […] The micro-wells were shaken for 5 minutes and read on a spectrophotometer at wavelengths of 570 nm (maximum formazan absorbance) and 630 nm (back-ground noise).
For each experimental condition, the mean optical density was calculated, as well as the percentage of remaining living cells in comparison with the control.
(§1) The overall growth of human cancer cell lines was determined by means of the calorimetric MTT (3-[4,5-dimethylthiazol-2-yl]-diphenyl tetrazolium bromide; Sigma) assay, as detailed previously.

Mk-CFC [1] = test: HALO hematotoxicity assay, human Mk-CFC; format: cell-based; conditions: 7 days culture, iATP
Procedure: (§2) Investigation of the hematotoxic potential of UNBS5162 was undertaken by HemoGenix (Colorado Springs, Colo.). The effects of UNBS5162 on stem and progenitor cell populations from murine and human bone marrow were assessed using HALO (Hematopoietic/Hematotoxicity Assay through Luminescence Output) technology. Stem and hematopoietic progenitor cell populations were isolated from mouse and human bone marrow samples, plated at a concentration of 1.0×10^4 cells/well and cultured for 5 and 7 days, respectively, in the presence of growth factors and increasing concentrations of UNBS5162 ranging from 0.5 nM to 50 μM. The proliferative or growth potential of cell populations was determined from intracellular ATP (iATP) concentrations and a luciferin/luciferase bioluminescence signal detection system. All samples were assayed in eight replicates. The results are presented as estimated inhibitory concentration (IC) values.

[2] = tested on: murine and human hematopoietic stem and progenitor cells; test: HALO hematotoxicity assay, overall statement; format: cell-based
Procedure: as §2

Mk-CFC [3] = test: HALO hematotoxicity assay, mouse Mk-CFC; format: cell-based; conditions: 5 days culture, iATP
Procedure: as §2

CFC-GEMM = test: HALO hematotoxicity assay, human CFC-GEMM; format: cell-based; conditions: 7 days culture, iATP
Procedure: as §2

LoVo = test: MTT colorimetric assay, LoVo cells; format: cell-based; conditions: Homo sapiens, 72 h, 3 days of culturing, mean of six determinations, read-out: IC50 (μM) In Vitro Growth Inhibition
Procedure: as §1

[4] = tested on: nine human cancer cell lines; test: MTT colorimetric assay, mean of nine cell lines; format: cell-based; conditions: mean over nine human cancer cell lines, read-out: mean antiproliferative activity IC50
Procedure: as §1
UNBS3157 and UNBS5162 display weak antiproliferative activity in vitro.

[5] = tested on: human PC-3 orthotopic xenografts
Procedure: Orthotopic xenografts were obtained by injecting 2.5×10^6 human PC-3 or DU-145 cells into the prostate of 6-week-old male nu/nu mice (n=9 animals per treatment group). All grafts were performed under anesthesia [saline/Rompun (Bayer, Leverkusen, Germany)/Imalgene (Merial, Lyons, France); 5:1:1 by volume]. The end point in these orthotopic experiments was the survival period of the tumor-bearing mice after the administration of UNBS3157, UNBS5162, or reference anticancer agents (taxol, mitoxantrone, and amonafide). However, for ethical reasons, animals were killed when 20% of body weight had been lost compared to that determined at the time of tumor grafting. All animals were weighed three times a week. […] In the case of UNBS5162 experiments in the PC-3 model, after the sacrifice of animals, tumors were removed from both drug-treated [10 mg/kg, intravenous (i.v.)] and vehicle-treated mice, fixed in buffered formalin, embedded in paraffin, and 5-μm-thick sections taken. These histologic slides were then stained with hematoxylin and eosin for blood vessel counts.

Compound CN(C)CCN1C(=O)c2cccc3cc(NC(N)=O)cc(c23)C1=O [UNBS5162, N-{2-[2-(dimethylamino)ethyl]-1,3-dioxo-2,3-dihydro-1H-benzo[de]isoquinolin-5-yl}urea] has an IC50 (U-373MG; 72 h, U373-MG, 3 days of culturing, mean of six determinations, read-out: IC50 (μM) In Vitro Growth Inhibition) of 4.7 µM, a pIC50 (U-373MG; U373 MG, U-373MG, 72 hours incubation, range of molar concentrations, read-out: IC50) of 5.00 to 5.30 and a pIC50 (Mk-CFC [1]; 168 h) of 5.39. For the same compound, the IC90 (Mk-CFC [1]; 168 h) was 20.1 µM, the IC75 (Mk-CFC [1]) was 9.22 µM and the “concentrations that were toxic (inhibited proliferation)” value [2] was “higher than 1 μM”. The pIC50 (Mk-CFC [3]; 120 h) was 5.23, the IC90 (Mk-CFC [3]; 120 h) was 9.61 µM and the IC75 (Mk-CFC [3]) was 7.53 µM. It also gave a pIC50 (CFC-GEMM; 168 h) of 5.59, an IC90 (CFC-GEMM; 168 h) of 12.8 µM and an IC75 (CFC-GEMM) of 5.67 µM. The IC50 (LoVo) was 8.9 µM, the pIC50 [4] was 4.75 and the “angiogenesis in tumors (histopathology, blood vessel counts)” value ([5]; PC-3 orthotopic model, 10 mg/kg i.v.) was “anti-angiogenic properties in vivo”. The “therapeutic benefit (survival)” value ([5]; PC-3 orthotopic model, 10 mg/kg i.v. three times a week for 6 consecutive weeks) was “therapeutic benefits that were similar to repeat i.v. administration (once a week for 6 consecutive weeks) of 20-mg/kg taxol”, the “therapeutic benefit (survival) in combination” value ([5]; PC-3 orthotopic model, UNBS5162 10 mg/kg i.v. at the same time as taxol 20 mg/kg i.v.) was “significantly (P<0.01) increased the therapeutic benefit contributed by taxol alone” and the “therapeutic benefit (survival) in combination” value ([5]; PC-3 orthotopic model, UNBS5162 before or after taxol) was “did not modify the therapeutic benefit contributed by taxol alone”. The “toxicity of combined treatment (mouse weight, behavior)” value ([5]; mouse, in vivo) was “did not contribute higher toxicity”.
